According to ChEMBL document CHEMBL1201862, “PubChem BioAssay data set” (2004):
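Briefly, cells in 96-well plates were exposed to five compound concentrations for 48 h, and endpoints were estimated by linear interpolation. GI50: concentration for 50% inhibition of growth.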 Activity calls are given as the source filed them. Rule as the data show it: active = GI50 up to about 1.1 µM and inactive = higher.

Tests used:
Test in all cases: DTP human tumour cell line panel, 48 h
DMS-114 = test system: DMS-114
DMS-273 = test system: DMS-273
DLD-1 = test system: DLD-1
HOP-18 = test system: HOP-18
SNB-78 = test system: SNB-78
XF498 = test system: XF498
LXFL 529 = test system: LXFL 529
RXF 631 = test system: RXF 631
KM-20L2 = test system: KM-20L2

SMILES	GI50 (DMS-114)	GI50 (DMS-273)	GI50 (DLD-1)	GI50 (HOP-18)	GI50 (SNB-78)	GI50 (XF498)	GI50 (LXFL 529)	GI50 (RXF 631)	GI50 (KM-20L2)
CSC(C1c2ccccc2N(C)C2=NC(=O)N(C)C(=O)C21Cl)S(=O)(=O)c1ccc(C)cc1 (stereo unspecified)	49.1 µM (inactive)	27.3 µM (inactive)	40.9 µM (inactive)	83.2 µM (inactive)	46.9 µM (inactive)	> 100 µM (inactive)	22.2 µM (inactive)	39.6 µM (inactive)	> 100 µM (inactive)
O=c1c2cc(Br)cc(Br)c2nc(CCCl)n1-c1ccc(O)c([N+](=O)[O-])c1	19.1 µM (inactive)	21.5 µM (inactive)	18.9 µM (inactive)	16.7 µM (inactive)	32.4 µM (inactive)		16.1 µM (inactive)		
CCCCC1NC=Nc2c1ccc1c2[nH]c2ccccc21 (stereo unspecified)	1.76 µM (inactive)	1.7 µM (inactive)	2.47 µM (inactive)	10.2 µM (inactive)	13 µM (inactive)	1.89 µM (inactive)	1.88 µM (inactive)	2.6 µM (inactive)	
CC1CC#CCOC(=O)CCCC1=O (stereo unspecified)	> 100 µM (inactive)	> 100 µM (inactive)	> 100 µM (inactive)	> 100 µM (inactive)	> 100 µM (inactive)	> 100 µM (inactive)	> 100 µM (inactive)		> 100 µM (inactive)
C[N+](C)=c1[nH]c2ccccc2[nH]1	> 100 µM (inactive)	> 100 µM (inactive)	> 100 µM (inactive)	> 100 µM (inactive)			> 100 µM (inactive)		> 100 µM (inactive)
CCOc1ccccc1NC(=O)CSc1nnc(Cc2ccccc2)o1	17.6 µM (inactive)	22.7 µM (inactive)	23.4 µM (inactive)	20.4 µM (inactive)	81.5 µM (inactive)		16.6 µM (inactive)		38.1 µM (inactive)
CCCCCCCCCCCc1nnc(N)o1		> 100 µM (inactive)	> 100 µM (inactive)		> 100 µM (inactive)	> 100 µM (inactive)	> 100 µM (inactive)	82 µM (inactive)	> 100 µM (inactive)
O=C(O)c1ccc2c(c1)C(=O)N(c1ccc(S(=O)(=O)c3ccc(N4C(=O)c5ccc(C(=O)O)cc5C4=O)cc3)cc1)C2=O	> 100 µM (inactive)	> 100 µM (inactive)			> 100 µM (inactive)	> 100 µM (inactive)	> 100 µM (inactive)		> 100 µM (inactive)
COP12(OC)NC(=O)OC1(C(F)(F)F)c1ccccc1O2 (stereo unspecified)	> 100 µM (inactive)	> 100 µM (inactive)	> 100 µM (inactive)	52.7 µM (inactive)	> 100 µM (inactive)	> 100 µM (inactive)	> 100 µM (inactive)		
CCOC(=O)c1ccc(-n2c(SCC)nc3sc(C)c(C)c3c2=O)cc1	> 100 µM (inactive)	> 100 µM (inactive)	> 100 µM (inactive)	> 100 µM (inactive)	> 100 µM (inactive)	> 100 µM (inactive)			> 100 µM (inactive)
CC1(C)CCCC2(C)[C@@H]1CC[C@@]13CC(=O)[C@@](C)(CC[C@@H]21)C3 (stereo partly specified)	46 µM (inactive)	55.6 µM (inactive)	> 100 µM (inactive)		> 100 µM (inactive)		80.2 µM (inactive)	78.3 µM (inactive)	72.3 µM (inactive)
CC(=O)OCC1OC(n2cccnc2=O)C(OC(C)=O)C1OC(C)=O (stereo unspecified)	> 100 µM (inactive)	> 100 µM (inactive)	> 100 µM (inactive)	> 100 µM (inactive)	> 100 µM (inactive)	> 100 µM (inactive)	> 100 µM (inactive)	> 100 µM (inactive)	> 100 µM (inactive)
COC1=CC(=O)c2c(ccc3ncnc(N)c23)C1=O	1.77 µM (inactive)	3.32 µM (inactive)	2.08 µM (inactive)		2.36 µM (inactive)		1.75 µM (inactive)	4.82 µM (inactive)	18.8 µM (inactive)
OC12c3ccccc3C1(N1CCOCC1)CCCCC21OCCCO1 (stereo unspecified)	> 100 µM (inactive)	> 100 µM (inactive)	> 100 µM (inactive)	> 100 µM (inactive)	> 100 µM (inactive)		> 100 µM (inactive)		> 100 µM (inactive)
COc1cc2ccnc(-c3c4ccccc4c(N)c4c(OC)c(OC)ccc34)c2cc1OC	2.59 µM (inactive)	1.53 µM (inactive)	3.04 µM (inactive)		3.66 µM (inactive)	2.64 µM (inactive)	3.6 µM (inactive)		
C/C(=N/NS(=O)(=O)c1ccc(C)cc1)c1cccc[n+]1[O-]	> 100 µM (inactive)	> 100 µM (inactive)	> 100 µM (inactive)	> 100 µM (inactive)	> 100 µM (inactive)	> 100 µM (inactive)	> 100 µM (inactive)	> 100 µM (inactive)	> 100 µM (inactive)
C(=C1\CCC/C(=C/c2ccccc2)C1=NNc1ccccc1)/c1ccccc1	> 100 µM (inactive)	> 100 µM (inactive)	> 100 µM (inactive)	> 100 µM (inactive)	> 100 µM (inactive)		> 100 µM (inactive)	> 100 µM (inactive)	> 100 µM (inactive)
O=P1(c2ccccc2)CCCCC1	> 100 µM (inactive)	> 100 µM (inactive)	> 100 µM (inactive)	> 100 µM (inactive)	> 100 µM (inactive)	< 0.01 µM (active)	> 100 µM (inactive)		> 100 µM (inactive)
N=C(CC(=O)Nc1ccc(Cl)cc1)Nc1ccccc1		> 100 µM (inactive)	> 100 µM (inactive)		> 100 µM (inactive)	> 100 µM (inactive)	> 100 µM (inactive)		> 100 µM (inactive)
C/C(CC(=O)CCCC(=O)Nc1ccc(Cl)cc1Cl)=N/NC(=O)CC#N	> 100 µM (inactive)	> 100 µM (inactive)	> 100 µM (inactive)	> 100 µM (inactive)	> 100 µM (inactive)	> 100 µM (inactive)	> 100 µM (inactive)	> 100 µM (inactive)	> 100 µM (inactive)
CC(=O)OC1(C)C(=O)OC1(C)C(C)=O (stereo unspecified)	> 100 µM (inactive)	> 100 µM (inactive)	> 100 µM (inactive)	> 100 µM (inactive)	> 100 µM (inactive)		> 100 µM (inactive)	> 100 µM (inactive)	> 100 µM (inactive)
COc1cc(C2c3cc4c(cc3[C@@H](Nc3ccc(N(C)C)cc3)[C@H]3COC(=O)C23)OCO4)cc(OC)c1O (stereo partly specified)	0.42 µM (active)	0.116 µM (active)	1.73 µM (inactive)	1.85 µM (inactive)	4.31 µM (inactive)	0.687 µM (active)	2.15 µM (inactive)		0.708 µM (active)
COc1cccc(C(=O)C2C(=O)N(C)CCc3ccccc32)c1OC (stereo unspecified)	> 100 µM (inactive)	> 100 µM (inactive)	> 100 µM (inactive)	> 100 µM (inactive)		> 100 µM (inactive)	> 100 µM (inactive)	> 100 µM (inactive)	> 100 µM (inactive)
Cc1ccc2nc3c(Cl)cc(=O)cc-3sc2c1	20.4 µM (inactive)	19.7 µM (inactive)	> 10 µM (inactive)	2.96 µM (inactive)	39.2 µM (inactive)		18.7 µM (inactive)	30.8 µM (inactive)	> 10 µM (inactive)
N=c1n(CC(=O)NC23CC4CC(CC(C4)C2)C3)c2ccccc2n1CC(=O)NC12CC3CC(CC(C3)C1)C2	1.93 µM (inactive)	1.83 µM (inactive)	1.9 µM (inactive)	2.03 µM (inactive)	2.91 µM (inactive)	1.52 µM (inactive)	2.04 µM (inactive)		1.81 µM (inactive)
COc1cc(C(=O)C/C(CCC(=O)Nc2ccccc2[N+](=O)[O-])=N\NC(=O)C(N)=O)ccc1O	> 100 µM (inactive)	> 100 µM (inactive)	> 100 µM (inactive)	> 100 µM (inactive)	> 100 µM (inactive)		> 100 µM (inactive)	> 100 µM (inactive)	> 100 µM (inactive)
O=C1/C(=C/c2ccc3c(c2)OCCO3)CCC/C1=C\c1ccc2c(c1)OCCO2		8.99 µM (inactive)	15.8 µM (inactive)	23.9 µM (inactive)	26.8 µM (inactive)		37.5 µM (inactive)		10.8 µM (inactive)
